From US9504248B2, “Antimicrobial composition” (Rohm and Haas Company, priority 2011, dated 2016)
Values after ≈ are worked out from the molar mass of the structure shown.

Assays:
Format in all cases: cell-based
[1] = system: Escherichia coli (E. coli - ATCC #10536); experiment: High resolution MBC synergy assay in phosphate buffer containing 35% dipropylene glycol, 15 seconds (Example 2); conditions: 15 s, complete kill; phosphate buffer with 35% DPG
Procedure: In this Example, a wide range of combinations of chemicals was tested by conducting high resolution MBC assays of monosubstituted phenols in the presence of various concentrations of terpineol. […] High resolution MBCs were determined by adding varying amounts of microbicide to one column of a microtiter plate and doing subsequent […] dilutions using an automated liquid handling system to obtain a series of endpoints ranging from 0.002% to 1% of the test compound. The MBC plate was inoculated one column at a time with the test microorganism. An aliquot of the inoculated well was transferred at 15 seconds to a plate containing a neutralizing agent (D/E Neutralizing Broth), mixed and held for 5 minutes before being transferred to a growth plate containing trypticase soy broth (TSB). The TSB plate was incubated at 37° C. and read for the presence/absence of growth at 24 hours.
This microorganism is representative of natural contaminants in many consumer and industrial applications.

[2] = system: Escherichia coli (E. coli - ATCC #10536); experiment: Automated assessment of efficacy in surfactant base, 15 seconds exposure, OD450/OD590 readout (Example 4); conditions: for MBC: Escherichia coli, ATCC10536, 15 s, in 2.85% sodium cocoyl glycinate + 1.85% sodium lauroamphoacetate solution at pH 10, 15 s; for antimicrobial action in combination with terpineol in the presence of surfactant (in words): cocoyl glycinate and lauroamphoacetate
Procedure: In these examples, the efficacy of combinations of monosubstituted phenols and terpineol were tested in a surfactant cleansing formulation comprising 2.85% sodium cocoyl glycinate and 1.85% sodium lauroamphoacetate. This corresponds to a 50% in use dilution with water of a typical neat formulation containing 5.7% cocoyl glycinate and 3.7% % sodium lauroamphoacetate during hand washing. Solutions were prepared such that the concentrations of the surfactant components and test actives were 1.1 times the final desired concentration in order to allow for dilution with the bacterial inoculum in the test. The solutions were manually adjusted to pH 10.0 by dropwise addition of sodium hydroxide solution, as measured with a pH meter at ambient temperature. Solutions of the monosubstituted phenols and/or terpineols were prepared at a maximum of 24 hours before testing. The same terpineol was used as in Example 1.
The efficacy of the combinations of the present invention was determined against the same bacterium as in Example 1, Escherichia coli (E. coli—ATCC #10536), at a concentration of approximately 1×10^8 bacteria per mL.
Tests were conducted using standard microtiter plate assays using an automated liquid handling system. 270 μl of the surfactant test solution was pipetted into each well of the microtitre plate (Nunc F Gamma Irradiated 96F untreated microtitre plates of clear polystyrene) and 30 μl of the bacterial suspension was then added. After exactly 15 seconds of bacterial exposure, a 30 μl volume of bacterial cells was withdrawn and transferred to 270 μl of D/E quench solution. After 5 minutes in the D/E quench, the optical density (OD) was measured for each plate in turn at two specific wavelengths (450 nm and 590 nm). These provide a dual check of antimicrobial activity, as the OD450 reading is specific for the yellow colour of D/E quench when bacterial growth is observed, whereas OD590 is specific for the initial purple colour of the D/E quench which is retained if no bacterial growth is observed. After the time zero OD measurements, plates were then incubated at 37° C. overnight (16 hours) before repeating the OD measurements. Delta OD values were calculated by subtracting […] at time=16 hours. Bacterial growth is observed as an increase in OD450 and a decrease in OD590. To identify antibacterially efficacious systems (those preventing appreciable bacterial growth after incubation), the following threshold changes in OD readings have been adopted: if (1). OD450 increases by less than 0.2 absorbance unit (AU) on incubation and (2). OD590 decreases by less than 0.35 AU on incubation. Conversely, where OD450 increases by more than […] after incubation, corresponding to a colour shift from purple to yellow, the test system allows bacterial growth and is not deemed efficacious. Four replicate measurements in the same plate have been made for each test system. The number of replicate wells showing either bacterial growth or no growth is also readily assessed by eye by following the colour change. Thymol and terpineol were tested both alone and in combination for comparison purposes.
In some selected cases, the combinations were also tested at the weight ratio 1:1.
The surfactants used are not themselves antimicrobially active against E. coli at the concentrations employed as shown by the results of Ex. (4:1) in Table 24. Thus, any antimicrobial efficacy can be ascribed to the monosubstituted phenols and/or terpineol. Table 25 presents MBC-values determined similarly as described for Example 1.

[3] = system: Escherichia coli (10536 strain); experiment: 15 second contact suspension kill assay (Example 1 protocol, also Example 3); conditions: Escherichia coli, 15 s; component alone; lowest tested concentration giving zero bacterial survival after 15 s; upper boundary; read-out: Minimum biocidal concentration (MBC)
Description: The efficacies of antimicrobial agents can be usefully compared by determining the Minimum Biocidal Concentration (MBC). The MBC is defined as the lowest absolute concentration of the particular active that provides complete kill (zero bacterial growth). The differing behaviours of inhibitory antimicrobtals in Isolation and mixtures have been widely explored using the concept of the Fractional Concentration and Fractional Inhibitory Concentration (FIC). See for instance J R W Lambert and R Lambert, J. Appl. Microblol 95, 734 (2003); T. Jadavji. C G Prober and R Cheung. Antimicrobial Agents and Chemotherapy 26, 91 (1984), and WO 2004/006876. These parameters can be defined as follows:
[formula] [formula] By analogy the Fractional Biocidal Concentration (FBC) is given by:
Antimicrobial efficacy is tested against a representative pathogenic bacterial organism, Gram negative Escherichia coli. Concentrations of actives are expressed in terms of the percentage weight/volume (% w/v) throughout Example 1.
An overnight culture of Escherichia coli (10536 strain) was prepared in 50 ml total volume of TSB broth, grown for ca. 18 hrs at 37° C. and shaken at 150 rpm. 1 ml of this overnight E. coli culture was transferred to 50 ml of fresh TSB broth and incubated at 37° C. at 150 rpm for ca. 4 hours. This culture was separated into equal volumes and centrifuged at 4000 rpm for 15 minutes, washed with sterile saline (0.85% NaCl), centrifuged once more and re-suspended in saline to give a final concentration of 0.8 OD620 equivalent to about 10^8 cells per milliliter for this particular organism. Here, OD620 indicates the absorbance of a sample in a cuvette of 1.0 cm path length at a wavelength of 620 nm. This bacterial stock was used for assaying against antimicrobial actives (in triplicate).
The following assay describes the testing of 8 materials using 6 dilutions across half of a 96-well micro titre plate (MTP). Using this approach it is possible to assay 16 actives (without replicates) with one full dilution plate, replicating this set up in two halves of the plate columns, 1-6 and 7-12.
1M solutions of the test actives were prepared in dimethylsulphoxide (DMSO).
Aliquots (270 μl) of the materials at 1.11 times the final concentration were dispensed into the wells of the MTP along one column (A1-H1). This MTP was labelled as the “Screening plate”.
In another MTP, labelled as the “Dilution plate”, 270 μl of D/E neutralising solution from DIFCO Composition was added to column 1. The composition of the neutralising solution was as follows: pancreatic digest of casein, 5.0 g/L; Yeast Extract, 2.5 g/L; Dextrose, 10 g/L, sodium thioglycollate, 1.0 g/L, sodium thiosulphate, 6.0 g/L; sodium bisulphite, 2.5 g/L; Polysorbate 80, 5.0 g/L; lecithin 7.0 g/L; bromocresol purple, 0.02 g/L with a pH in the range 7.6±0.2.
270 μl of tryptone diluent solution was added to all the remaining wells of the Dilution MTP (columns 2-6).
Bacterial stock (30 μl) was then added to the prepared 270 μl of the solution of actives in the Screening Plate and mixed, using a multichannel pipette with 8 tips to aspirate and dispense the same volume of bacterial stock in parallel to 8 wells in rows A-H. After a contact time of 15 seconds, the mixtures were quenched by transferring 30 μl volumes of the mixtures into the 270 μl D/E neutralising solution in the prepared dilution plate, using aspiration to mix. After exactly 5 minutes in the DIE neutralising solution, 30 μl volumes were transferred from column 1 to column 2 of the Dilution MTP and mixed, before transferring further 30 μl volumes from column 2 into column 3. This process was repeated serially diluting the bacteria across the plate to column 6.
30 μl volumes from each well in the Dilution MTP were transferred onto pre-labelled segment of Tryptone Soya Agar (TSA) plates starting from the lowest bacterial concentration (highest dilution, column 6) to the highest bacterial concentration (column 1).

Oc1ccccc1Cc1ccccc1 [2-benzylphenol]
MBC of first component alone (MBCA; Ca at Cb = 0) [1]: 0.6 weight % | MBC [2]: > 2000 µg/mL | antimicrobial action in combination with terpineol in the presence of surfactant (in words) [2]: enhanced antimicrobial action | MBC [3]: 500 µg/mL (≈ 2.71 mM)

Oc1ccccc1C1CCCC1 [2-cyclopentylphenol]
MBC of first component alone (MBCA; Ca at Cb = 0) [1]: 0.8 weight % | MBC [2]: > 2000 µg/mL | antimicrobial action in combination with terpineol in the presence of surfactant (in words) [2]: enhanced antimicrobial action | MBC [3]: 1000 µg/mL (≈ 6.16 mM)

CCCc1ccccc1O [2-n-propylphenol]
MBC of first component alone (MBCA; Ca at Cb = 0) [1]: 0.3 weight % | antimicrobial action in combination with terpineol in the presence of surfactant (in words) [2]: enhanced antimicrobial action

CCC(C)c1ccccc1O (centres unmarked) [2-sec-butylphenol]
MBC of first component alone (MBCA; Ca at Cb = 0) [1]: 0.2 weight % | MBC [2]: > 2000 µg/mL | antimicrobial action in combination with terpineol in the presence of surfactant (in words) [2]: enhanced antimicrobial action | MBC [3]: 500 µg/mL (≈ 3.33 mM)

CC(C)(C)c1ccccc1O [2-tert-butylphenol]
MBC of first component alone (MBCA; Ca at Cb = 0) [1]: 0.2 weight % | MBC [2]: 1750 µg/mL | antimicrobial action in combination with terpineol in the presence of surfactant (in words) [2]: enhanced antimicrobial action | MBC [3]: 500 µg/mL (≈ 3.33 mM)

CCCc1cccc(O)c1 [3-n-propylphenol]
MBC of first component alone (MBCA; Ca at Cb = 0) [1]: 0.05 weight % | MBC [2]: 1750 µg/mL | antimicrobial action in combination with terpineol in the presence of surfactant (in words) [2]: enhanced antimicrobial action

Oc1ccc(Cc2ccccc2)cc1 [4-benzylphenol]
MBC of first component alone (MBCA; Ca at Cb = 0) [1]: 0.5 weight % | MBC [2]: > 2000 µg/mL | antimicrobial action in combination with terpineol in the presence of surfactant (in words) [2]: enhanced antimicrobial action | MBC [3]: 500 µg/mL (≈ 2.71 mM)

Oc1ccc(C2CCCC2)cc1 [4-cyclopentylphenol]
MBC of first component alone (MBCA; Ca at Cb = 0) [1]: 0.6 weight % | MBC [2]: > 2000 µg/mL | MBC [3]: 800 µg/mL (≈ 4.93 mM)

CCCc1ccc(O)cc1 [4-n-propylphenol]
MBC of first component alone (MBCA; Ca at Cb = 0) [1]: 0.3 weight % | antimicrobial action in combination with terpineol in the presence of surfactant (in words) [2]: enhanced antimicrobial action | MBC [3]: 750 µg/mL (≈ 5.51 mM)

CCCCCc1ccc(O)cc1 [4-pentylphenol]
MBC of first component alone (MBCA; Ca at Cb = 0) [1]: 1.0 weight % | MBC [2]: > 2000 µg/mL | MBC [3]: 250 µg/mL (≈ 1.52 mM)

CC1=CCC(C(C)(C)O)CC1 (stereo not drawn) [alpha-terpineol]
MBC of second component (terpineol) alone (MBCB; Cb at Ca = 0) [1]: 0.6 weight %
